Assay results reported in ChEMBL document CHEMBL1201862, “PubChem BioAssay data set” (2004).
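Cells were grown in 96-well plates and exposed to each compound for 48 hours at five concentrations; endpoints were interpolated linearly between bracketing concentrations, or set to the highest concentration if not reached. Here, GI50 denotes the concentration required for 50% inhibition of growth.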 The source made the active and inactive calls. Cut-off read from the data, not from the text of the source: active = GI50 up to about 1.1 µM and inactive = higher.

How the values were obtained:
Assay in all cases: inhibition of tumour cell growth, NCI panel, 48 h
[1] = test system: 786-0
[2] = test system: ACHN
[3] = test system: COLO 205
[4] = test system: EKVX
[5] = test system: HCT-15
[6] = test system: IGROV-1
[7] = test system: LOX IMVI
[8] = test system: M19-MEL
[9] = test system: OVCAR-4
[10] = test system: OVCAR-8
[11] = test system: SK-MEL-5
[12] = test system: SNB-19
[13] = test system: UACC-62
[14] = test system: UO-31
[15] = test system: CCRF-CEM
[16] = test system: HCC 2998
[17] = test system: Hs-578T
[18] = test system: MDA-MB-231
[19] = test system: MDA-MB-435
[20] = test system: T47D

Row | SMILES | GI50 [1] | GI50 [2] | GI50 [3] | GI50 [4] | GI50 [5] [µM] | GI50 [6] | GI50 [7] | GI50 [8] | GI50 [9] | GI50 [10] | GI50 [11] | GI50 [12] | GI50 [13] | GI50 [14] | GI50 [15] | GI50 [16] | GI50 [17] | GI50 [18] | GI50 [19] | GI50 [20]
1 | O=C(CC1(O)C(=O)Nc2ccccc21)c1ccccc1O (centres undefined) | > 100 µM (inactive) | > 100 µM (inactive) | > 100 µM (inactive) | > 100 µM (inactive) | > 100 | > 100 µM (inactive) | > 100 µM (inactive) | > 100 µM (inactive) | > 100 µM (inactive) | > 100 µM (inactive) | > 100 µM (inactive) | > 100 µM (inactive) | > 100 µM (inactive) | 91.6 µM (inactive) |  |  |  |  |  | 
2 | Cc1ccc(S(=O)(=O)c2ccc([N+](=O)[O-])o2)cc1 | 1.67 µM (inactive) | 1.59 µM (inactive) | 0.916 µM (active) | 3.24 µM (inactive) | 1.17 | 1.55 µM (inactive) | 1.14 µM (inactive) |  | 2.27 µM (inactive) | 0.906 µM (active) | 11 µM (inactive) | 20.1 µM (inactive) | 2.32 µM (inactive) | 1.44 µM (inactive) | 0.242 µM (active) | 4.83 µM (inactive) | 2.53 µM (inactive) | 2.21 µM (inactive) | 1.81 µM (inactive) | 2.36 µM (inactive)
3 | N#Cc1c(N2CCN(c3ccc([N+](=O)[O-])cc3)CC2)[n+]([O-])c2ccc(Cl)cc2[n+]1[O-] | 0.718 µM (active) | 0.789 µM (active) | 3.24 µM (inactive) | 1.71 µM (inactive) | 0.627 | 0.318 µM (active) | 0.459 µM (active) |  | 1.18 µM (inactive) | 1.11 µM (active) | 6.38 µM (inactive) | 2.81 µM (inactive) | 1.18 µM (inactive) | 1.43 µM (inactive) | 0.29 µM (active) | 0.944 µM (active) | 2.11 µM (inactive) | 1.04 µM (active) | 1.8 µM (inactive) | 0.716 µM (active)
4 | Cc1cccc(Nc2nc(NNC(=O)Cc3ccccc3)nc(NNC(=O)c3ccncc3)n2)c1 | > 10 µM (inactive) | > 10 µM (inactive) | > 10 µM (inactive) | > 10 µM (inactive) | > 10 | > 10 µM (inactive) | > 10 µM (inactive) |  | > 10 µM (inactive) | > 10 µM (inactive) | > 10 µM (inactive) | > 10 µM (inactive) | > 10 µM (inactive) | > 10 µM (inactive) | > 10 µM (inactive) | > 10 µM (inactive) | > 10 µM (inactive) | > 10 µM (inactive) | > 10 µM (inactive) | > 10 µM (inactive)
5 | CSc1ccc(/C=C2\N=C(c3ccccc3)N(c3nc4cc(Cl)c(F)cc4s3)C2=O)cc1 | 63.1 µM (inactive) | 36.4 µM (inactive) | 54.5 µM (inactive) | 28.3 µM (inactive) | 76.9 | 36.5 µM (inactive) | 20.3 µM (inactive) |  | 24.7 µM (inactive) | 20 µM (inactive) | 28.4 µM (inactive) | 25.1 µM (inactive) | 43.6 µM (inactive) | 55.8 µM (inactive) | 25 µM (inactive) | 99.5 µM (inactive) | 21.7 µM (inactive) | 30.8 µM (inactive) | 33 µM (inactive) | 26.1 µM (inactive)
6 | COc1cccc(CCCNC(=O)Cc2ccccc2CO)c1 | > 100 µM (inactive) | > 100 µM (inactive) | > 100 µM (inactive) | > 100 µM (inactive) | > 100 | > 100 µM (inactive) | > 100 µM (inactive) |  | > 100 µM (inactive) | > 100 µM (inactive) | > 100 µM (inactive) | > 100 µM (inactive) | > 100 µM (inactive) | > 100 µM (inactive) | > 100 µM (inactive) | > 100 µM (inactive) | > 100 µM (inactive) | > 100 µM (inactive) | > 100 µM (inactive) | 38.1 µM (inactive)
7 | C=C1[C@H](OC(=O)C(C)C)[C@@H](OC(C)=O)[C@@H](OC(C)=O)C(C)(C)[C@@H]2O[C@H]2[C@@H](C)C(=O)[C@@]2(OC(C)=O)C[C@@](C)(OC(C)=O)[C@H](OC(C)=O)[C@@H]2[C@H]1OC(C)=O | > 100 µM (inactive) | > 100 µM (inactive) | > 100 µM (inactive) | > 100 µM (inactive) | > 100 | > 100 µM (inactive) | > 100 µM (inactive) |  | > 100 µM (inactive) | > 100 µM (inactive) | > 100 µM (inactive) | > 100 µM (inactive) | > 100 µM (inactive) | 61.9 µM (inactive) | > 100 µM (inactive) | > 100 µM (inactive) | > 100 µM (inactive) | > 100 µM (inactive) | > 100 µM (inactive) | > 100 µM (inactive)
8 | O=C1c2ccccc2C(=O)c2c1ccc1c3ccccc3n(Cc3ccccc3)c21 | > 100 µM (inactive) | 94.2 µM (inactive) | > 100 µM (inactive) | > 100 µM (inactive) | > 100 | > 100 µM (inactive) | > 100 µM (inactive) | 88.7 µM (inactive) | 53.6 µM (inactive) | > 100 µM (inactive) | > 100 µM (inactive) |  | > 100 µM (inactive) | > 100 µM (inactive) | > 100 µM (inactive) |  |  |  |  | 
9 | Clc1ccc(-c2nc3cc(C45CC6CC(CC(C6)C4)C5)ccc3[nH]2)cc1 | 39.4 µM (inactive) | 51.8 µM (inactive) | 7.43 µM (inactive) | > 94.2 µM (inactive) | 9.46 | > 100 µM (inactive) | 18.3 µM (inactive) |  | 60.5 µM (inactive) | 28.7 µM (inactive) | 7.18 µM (inactive) | 44.4 µM (inactive) | 31.3 µM (inactive) | 15.3 µM (inactive) | 8.3 µM (inactive) | 31.7 µM (inactive) | 62.7 µM (inactive) | > 100 µM (inactive) | 36.1 µM (inactive) | 24.2 µM (inactive)
10 | O/N=C1/C(=C/c2ccccc2)CCCC1C(NO)c1ccccc1 (centres undefined) | > 100 µM (inactive) | 68.4 µM (inactive) | > 100 µM (inactive) | 61.9 µM (inactive) | > 100 | > 100 µM (inactive) | > 100 µM (inactive) | 68.4 µM (inactive) | 31.3 µM (inactive) | 64 µM (inactive) |  | 91.4 µM (inactive) | 70.3 µM (inactive) | 57.1 µM (inactive) |  |  |  |  |  | 
11 | C(/Cc1ccc2c(c1)OCO2)=N\N=C1NCCCCN1 | > 100 µM (inactive) | > 100 µM (inactive) | > 100 µM (inactive) | 50 µM (inactive) | > 100 | 68.9 µM (inactive) | 55.5 µM (inactive) |  | > 100 µM (inactive) | > 100 µM (inactive) | 25.4 µM (inactive) | > 100 µM (inactive) | > 100 µM (inactive) | 43.9 µM (inactive) | 82.2 µM (inactive) | 28.2 µM (inactive) | > 100 µM (inactive) | 76.2 µM (inactive) | > 100 µM (inactive) | 54.5 µM (inactive)
12 | Nc1nc(NCC2(CO)CC2)cc(=O)[nH]1 | > 100 µM (inactive) | > 100 µM (inactive) | > 100 µM (inactive) | > 100 µM (inactive) | > 100 | > 100 µM (inactive) | > 100 µM (inactive) |  | > 100 µM (inactive) | > 100 µM (inactive) | > 100 µM (inactive) | > 100 µM (inactive) | > 100 µM (inactive) | > 100 µM (inactive) | > 100 µM (inactive) | > 100 µM (inactive) | > 100 µM (inactive) | > 100 µM (inactive) | > 100 µM (inactive) | > 100 µM (inactive)
13 | O=c1[nH]c(=O)n([C@H]2C[C@H](O)[C@@H](CO)O2)cc1Br [BROXURIDINE] | > 100 µM (inactive) | > 100 µM (inactive) | > 100 µM (inactive) | > 100 µM (inactive) | > 63.5 | > 59.2 µM (inactive) | > 97.1 µM (inactive) |  | > 100 µM (inactive) | > 100 µM (inactive) | > 100 µM (inactive) | > 100 µM (inactive) | > 100 µM (inactive) | > 100 µM (inactive) | > 64.4 µM (inactive) | > 60.3 µM (inactive) | > 100 µM (inactive) | > 100 µM (inactive) | > 100 µM (inactive) | > 100 µM (inactive)
14 | COc1ccc([C@@]23Oc4cc(OC)cc(OC)c4[C@]2(O)[C@H](O)[C@H](C(=O)N(C)C)[C@H]3c2ccccc2)cc1 [ROCAGLAMIDE] | 0.00953 µM (active) | 0.00344 µM (active) | 0.00647 µM (active) | 0.0203 µM (active) | 0.0176 | 0.00612 µM (active) | 0.00191 µM (active) |  | 0.0206 µM (active) | 0.0109 µM (active) | 0.00301 µM (active) | 0.267 µM (active) | 0.00676 µM (active) | 0.0158 µM (active) | 0.00366 µM (active) | 0.00289 µM (active) | 0.00875 µM (active) | 0.00776 µM (active) | 0.0036 µM (active) | 0.00219 µM (active)
15 | O=C(O)CC(CC(=O)O)C(=O)O [TRICARBALLYLIC ACID] | > 100 µM (inactive) | > 100 µM (inactive) | > 100 µM (inactive) | > 100 µM (inactive) | > 100 | > 100 µM (inactive) | > 100 µM (inactive) |  | > 100 µM (inactive) | > 100 µM (inactive) | > 100 µM (inactive) | > 100 µM (inactive) | > 100 µM (inactive) | > 100 µM (inactive) | > 100 µM (inactive) | > 100 µM (inactive) | > 100 µM (inactive) | > 100 µM (inactive) | > 100 µM (inactive) | > 100 µM (inactive)
